# Reference: patent US20220162191A1, “SMALL MOLECULE MODULATORS OF IL-17” (LEO PHARMA A/S, priority 2019, published 2022)
# Biological target: T1, human IL-17AA (Homo sapiens, UniProt Q16552)
# T1 construct: host or cells: HEK (human embryonic kidney) cells
# T1 sequence (Q16552 24-155) 1: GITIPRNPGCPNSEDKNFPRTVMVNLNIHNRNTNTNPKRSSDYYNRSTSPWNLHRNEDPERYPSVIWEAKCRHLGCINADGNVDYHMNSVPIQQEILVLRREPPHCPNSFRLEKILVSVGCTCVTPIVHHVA
# T1 sequence (Q16552 24-155) 2: T1 sequence (Q16552 24-155) 1
# Test: IL-8 release assay in human epithelial keratinocytes adult (HEKa)
# Assay type: cell-based
# Conditions: 3 ng/ml human IL-17AA + 10 ng/ml human TNFalpha, 68-72 h, IL-8 by HTRF, read-out: Rel EC50 L-8 release assay
# Experimental: Example: IL-8 release assay in human epithelial keratinocytes adult (HEKa) Keratinocytes were seeded at 3500 cells/well in 384-well ViewPlates (Perkin Elmer) in Epilife medium (Thermo Fisher) containing human keratinocyte growth supplement (HKGS) without hydrocortisone and incubated in a humid incubator at 37° C., 5% CO2, overnight. The following day growth medium was removed and 25 μl fresh Epilife 10 medium added. 75 nl test compound in 100% DMSO was added into each well reserved
# for test compounds, by the use of acoustic pipetting. The remaining wells received an equal volume of DMSO only, as vehicle control, or terfenadine in DMSO, as a positive control for any cytotoxic compounds. Subsequently, another 25 μl Epilife medium was added to each well. Finally, wells containing test compounds and wells prepared to yield 15 maximum stimulation received 25 μl of 9 ng/ml recombinant, human embryonic kidney cell (HEK)-derived human IL-17AA+30 ng/ml human TNF-alpha, in Epilife medium. Wells prepared to define 100% inhibition of IL-17 effects received 25 μl of 30 ng/ml human TNF-alpha alone, in Epilife medium. Final concentrations were 3 ng/ml HEKhuman IL-17AA+10 ng/ml human TNFalpha (maximum stimulation) and 10 ng/ml 20 human TNFalpha alone (100% inhibition, Emax), respectively. Cells were incubated for 68-72 h in the incubator. IL-8 released from the cells was measured by the use of a commercial homogenous time-resolved fluorescence (HTRF) assay (CisBio). 2 μl cell culture supernatant was transferred to a 384-well Proxiplate. 5 μl HTRF reagent was added and the plates incubated sealed in the dark for 3-22 h at room temperature. Time resolved fluorescence was read at 665 vs 620 nm, with excitation at 320 nm, and IL-8 levels calculated as percent of controls. Reduction of the amount of secreted IL-8 indicates decreased IL-17 signaling. Concentration response curves were fitted by the use of a four-parameter logistic equation. Relative IC50 and Emax were reported from 5 curves showing acceptable fit (r2>0.9). Cytotoxicity was measured in the cell-containing
# Compounds of the present invention were tested in the IL-8 release assay in human epithelial keratinocytes.
row,Compound,EC50
1,"Cc1n[nH]c(C)c1-c1ccc(NC(=O)[C@@H](NC(=O)C2(F)CC2)[C@@H]2CCc3ccc(-c4cnn(C(C)(C)CO)c4)cc32)cc1 [Example 12, N-[(1S)-2-[4-(3,5-dimethyl-1H-pyrazol-4-yl)anilino]-1-[(1R)-6-[1-(2-hydroxy-1,1-dimethyl-ethyl)pyrazol-4-yl]indan-1-yl]-2-oxo-ethyl]-1-fluoro-cyclopropanecarboxamide]",< 100 nM
2,"Cc1n[nH]c(C)c1-c1ccc(NC(=O)[C@@H](NC(=O)c2ccnn2C)[C@@H]2CCc3ccc(-c4cnn(CC(C)(C)O)c4)cc32)cc1 [Example 13, N-[(1S)-2-[4-(3,5-dimethyl-1H-pyrazol-4-yl)anilino]-1-[(1R)-6-[1-(2-hydroxy-2-methyl-propyl)pyrazol-4-yl]indan-1-yl]-2-oxo-ethyl]-2-methyl-pyrazole-3-carboxamide]",< 100 nM
3,"Cc1n[nH]c(C)c1-c1ccc(NC(=O)[C@@H](NC(=O)c2ccnn2C)[C@@H]2CCc3ccc(-c4ccnc(C(C)C)c4)cc32)cc1 [Example 14, N-[(1S)-2-[4-(3,5-dimethyl-1H-pyrazol-4-yl)anilino]-1-[(1R)-6-(2-isopropyl-4-pyridyl)indan-1-yl]-2-oxo-ethyl]-2-methyl-pyrazole-3-carboxamide]",< 100 nM
4,"Cc1n[nH]c(C)c1-c1ccc(NC(=O)[C@@H](NC(=O)c2ccnn2C)[C@@H]2CCc3ccc(-c4ccc5c(c4)CCN(C)C5)cc32)cc1 [Example 15, N-[(1S)-2-[4-(3,5-dimethyl-1H-pyrazol-4-yl)anilino]-1-[(1R)-6-(2-methyl-3,4-dihydro-1H-isoquinolin-6-yl)indan-1-yl]-2-oxo-ethyl]-2-methyl-pyrazole-3-carboxamide]",< 100 nM
5,"Cc1n[nH]c(C)c1-c1ccc(NC(=O)[C@@H](NC(=O)c2ccnn2C)[C@@H]2CCc3ccc(-c4ccnc(C(C)(C)O)c4)cc32)cc1 [Example 16, N-[(1S)-2-[4-(3,5-dimethyl-1H-pyrazol-4-yl)anilino]-1-[(1R)-6-[2-(1-hydroxy-1-methyl-ethyl)-4-pyridyl]indan-1-yl]-2-oxo-ethyl]-2-methyl-pyrazole-3-carboxamide]",< 100 nM
6,"Cc1n[nH]c(C)c1-c1ccc(NC(=O)[C@@H](NC(=O)c2ccnn2C)[C@@H]2CCc3ccc(-c4ccc5c(c4)CCNC5)cc32)cc1 [Example 17, N-[(1S)-2-[4-(3,5-dimethyl-1H-pyrazol-4-yl)anilino]-2-oxo-1-[(1R)-6-(1,2,3,4-tetrahydroisoquinolin-6-yl)indan-1-yl]ethyl]-2-methyl-pyrazole-3-carboxamide]",< 100 nM
7,"Cc1cc(-c2ccc3c(c2)[C@H]([C@H](NC(=O)c2ccnn2C)C(=O)Nc2ccc(-c4c(C)n[nH]c4C)cc2)CC3)ccc1CN1CCOCC1 [Example 18, N-[(1S)-2-[4-(3,5-dimethyl-1H-pyrazol-4-yl)anilino]-1-[(1R)-6-[3-methyl-4-(morpholinomethyl)phenyl]indan-1-yl]-2-oxo-ethyl]-2-methyl-pyrazole-3-carboxamide]",< 100 nM
8,"Cc1n[nH]c(C)c1-c1ccc(NC(=O)[C@@H](NC(=O)c2ccnn2C)[C@@H]2CCc3ccc(-c4ccc(CN5CCCC5)cc4)cc32)cc1 [Example 19, N-[(1S)-2-[4-(3,5-dimethyl-1H-pyrazol-4-yl)anilino]-2-oxo-1-[(1R)-6-[4-(pyrrolidin-1-ylmethyl)phenyl]indan-1-yl]ethyl]-2-methyl-pyrazole-3-carboxamide]",100 to 1000 nM
9,"Cc1n[nH]c(C)c1-c1ccc(NC(=O)[C@@H](NC(=O)c2ccnn2C)[C@@H]2CCc3ccc(-c4ccc(CN5CCCCC5)cc4)cc32)cc1 [Example 20, N-[(1S)-2-[4-(3,5-dimethyl-1H-pyrazol-4-yl)anilino]-2-oxo-1-[(1R)-6-[4-(1-piperidylmethyl)phenyl]indan-1-yl]ethyl]-2-methyl-pyrazole-3-carboxamide]",100 to 1000 nM
10,"Cc1n[nH]c(C)c1-c1ccc(NC(=O)[C@@H](NC(=O)c2ccnn2C)[C@@H]2CCc3ccc(-c4ccc(CN5CCC5)cc4)cc32)cc1 [Example 21, N-[(1S)-1-[(1R)-6-[4-(azetidin-1-ylmethyl)phenyl]indan-1-yl]-2-[4-(3,5-dimethyl-1H-pyrazole-4-yl)anilino]-2-oxo-ethyl]-2-methyl-pyrazole-3-carboxamide]",< 100 nM
11,"Cc1n[nH]c(C)c1-c1ccc(NC(=O)[C@@H](NC(=O)c2ccnn2C)[C@@H]2CCc3ccc(-c4cnn(C(C)(C)CN)c4)cc32)cc1 [Example 22, N-[(1S)-1-[(1R)-6-[1-(2-amino-1,1-dimethyl-ethyl)pyrazol-4-yl]indan-1-yl]-2-[4-(3,5-dimethyl-1H-pyrazol-4-yl)anilino]-2-oxo-ethyl]-2-methyl-pyrazole-3-carboxamide]",100 to 1000 nM
12,"Cc1n[nH]c(C)c1-c1ccc(NC(=O)[C@@H](NC(=O)C2(F)CC2)[C@@H]2CCc3ccc(-c4ccnc(N5C[C@@H]6C[C@H]5CN6)c4)cc32)cc1 [Example 23, N-[(1S)-1-[(1R)-6-[2-[(1S,4S)-2,5-diazabicyclo[2.2.1]heptan-2-yl]-4-pyridyl]indan-1-yl]-2-[4-(3,5-dimethyl-1H-pyrazol-4-yl)anilino]-2-oxo-ethyl]-1-fluoro-cyclopropanecarboxamide]",< 100 nM
13,"Cc1n[nH]c(C)c1-c1ccc(NC(=O)[C@@H](NC(=O)C2(F)CC2)[C@@H]2CCc3ccc(-c4cnn(C(C)(C)CN)c4)cc32)cc1 [Example 24, N-[(1S)-1-[(1R)-6-[1-(2-amino-1,1-dimethyl-ethyl)pyrazol-4-yl]indan-1-yl]-2-[4-(3,5-dimethyl-1H-pyrazol-4-yl)anilino]-2-oxo-ethyl]-1-fluoro-cyclopropanecarboxamide]",100 to 1000 nM
14,"CC(C)n1cc(-c2ccc3c(c2)C([C@H](NC(=O)c2ccnn2C)C(=O)Nc2ccc(-c4cncn4C)cc2)CC3)ccc1=O (stereo partly drawn) [Example 25, N-[(1S)-1-[6-(1-isopropyl-6-oxo-3-pyridyl)indan-1-yl]-2-[4-(3-methylimidazol-4-yl)anilino]-2-oxo-ethyl]-2-methyl-pyrazole-3-carboxamide]",100 to 1000 nM
15,"Cc1n[nH]c(C)c1-c1ccc(NC(=O)[C@@H](NC(=O)c2ccnn2C)[C@@H]2CCCc3ccc(-c4cnn(C5CC5)c4)cc32)cc1 [Example 26, N-[(1S)-1-[(1R)-7-(1-cyclopropylpyrazol-4-yl)tetralin-1-yl]-2-[4-(3,5-dimethyl-1H-pyrazol-4-yl)anilino]-2-oxo-ethyl]-2-methyl-pyrazole-3-carboxamide]",< 100 nM
16,"Cc1n[nH]c(C)c1-c1ccc(NC(=O)[C@@H](NC(=O)C2(F)CC2)[C@@H]2CCCc3ccc(-c4ccc(=O)n(C(C)C)c4)cc32)cc1 [Example 27, N-[(1S)-2-[4-(3,5-dimethyl-1H-pyrazol-4-yl)anilino]-1-[(1R)-7-(1-isopropyl-6-oxo-3-pyridyl)tetralin-1-yl]-2-oxo-ethyl]-1-fluoro-cyclopropanecarboxamide]",< 100 nM
17,"Cc1n[nH]c(C)c1-c1ccc(NC(=O)[C@@H](NC(=O)C2(F)CC2)[C@@H]2CCCc3ccc(-c4ccnc(N5C[C@H]6C[C@@H]5CO6)c4)cc32)cc1 [Example 28, N-[(1S)-2-[4-(3,5-dimethyl-1H-pyrazol-4-yl)anilino]-1-[(1R)-7-[2-[(1R,4R)-2-oxa-5-azabicyclo[2.2.1]heptan-5-yl]-4-pyridyl]tetralin-1-yl]-2-oxo-ethyl]-1-fluoro-cyclopropanecarboxamide]",< 100 nM
18,"Cc1n[nH]c(C)c1-c1ccc(NC(=O)[C@@H](NC(=O)C2(F)CC2)[C@@H]2CCCc3ccc(-c4ccnc(N5C[C@@H]6C[C@H]5CO6)c4)cc32)cc1 [Example 29, N-[(1S)-2-[4-(3,5-dimethyl-1H-pyrazol-4-yl)anilino]-1-[(1R)-7-[2-[(1S,4S)-2-oxa-5-azabicyclo[2.2.1]heptan-5-yl]-4-pyridyl]tetralin-1-yl]-2-oxo-ethyl]-1-fluoro-cyclopropanecarboxamide]",< 100 nM
19,"CC(C)n1cc(-c2ccc3c(c2)[C@H]([C@H](NC(=O)c2ccnn2C)C(=O)Nc2ccc(-c4cncn4C)cc2)CCC3)ccc1=O [Example 30, N-[(1S)-1-[(1R)-7-(1-isopropyl-6-oxo-3-pyridyl)tetralin-1-yl]-2-[4-(3-methylimidazol-4-yl)anilino]-2-oxo-ethyl]-2-methyl-pyrazole-3-carboxamide]",< 100 nM
20,"CC(C)n1cc(-c2ccc3c(c2)[C@H]([C@H](NC(=O)OC2CC2)C(=O)Nc2ccc(-c4cncn4C)c(O)c2)CCC3)ccc1=O [Example 31, cyclopropyl N-[(1S)-2-[3-hydroxy-4-(3-methylimidazol-4-yl)anilino]-1-[(1R)-7-(1-isopropyl-6-oxo-3-pyridyl)tetralin-1-yl]-2-oxo-ethyl]carbamate]",< 100 nM
